One molecule from US12180474B2, “Methods of treating porphyria” (University of Pittsburgh—Of the Commonwealth System of …, priority 2018, dated 2024) can be followed below.

What all share (type): in vivo
The target in experiment [1] is T1, Porcupine (PORCN) (Mus musculus, UniProt Q9JJJ7).
T1 construct: from tissue; host or cells: whole mouse in vivo; liver and serum analysed
T1 sequence (Q9JJJ7 1-461): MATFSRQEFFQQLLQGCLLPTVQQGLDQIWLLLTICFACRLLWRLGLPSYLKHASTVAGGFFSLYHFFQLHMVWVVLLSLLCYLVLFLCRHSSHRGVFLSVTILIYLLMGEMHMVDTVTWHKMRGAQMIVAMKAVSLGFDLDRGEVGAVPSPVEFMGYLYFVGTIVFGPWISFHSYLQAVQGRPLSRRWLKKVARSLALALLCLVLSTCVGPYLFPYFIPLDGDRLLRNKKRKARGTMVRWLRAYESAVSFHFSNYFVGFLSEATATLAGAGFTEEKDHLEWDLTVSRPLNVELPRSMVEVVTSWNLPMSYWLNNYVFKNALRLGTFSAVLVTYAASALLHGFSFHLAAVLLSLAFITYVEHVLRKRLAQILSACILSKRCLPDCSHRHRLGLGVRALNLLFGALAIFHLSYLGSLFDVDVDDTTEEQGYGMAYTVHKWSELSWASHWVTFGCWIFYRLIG
Kind of experiment: Wnt-C59, GS and p-mTOR IHC in DDC-fed WT1/WT2 mice (Example 4). The text has this:
To test the effect of Wnt-C59 on GS and p-mTOR levels, two-month old WT1/WT2 mice were exposed to a DCC diet, as described in Example 1, and received i.p. injections of Wnt-C59, as described in Example 2. Livers from the control and experimental groups were utilized for IHC, as described in Example 1.

The target of experiment [2] is T1, Porcupine (PORCN). Kind of experiment: Wnt-C59 in WT1/WT2 mice, acute intermittent porphyria model (Example 3). Conditions: 30 mg/kg i.p., vs control group.
The target of experiment [3] is T1, Porcupine (PORCN). Nature of the experiment: Wnt-C59 in DDC-fed CD-1 mice (Example 2). Conditions: 30 mg/kg i.p. The procedure:
Two-month old CD-1 mice were started on a 0.1% DDC diet to induce porphyria. Three days after starting the diet, mice received intraperitoneal (i.p.) injections of 30 mg/kg Porcupine (PORCN) inhibitor Wnt-C59. The Wnt-C59 was delivered on a five days on, two days off schedule for two weeks. Mice were sacrificed 6 hours after the final dose of Wnt-C59. Serum and livers from the control and experimental groups were utilized for IHC, Western blotting, and biochemical assays, as described in Example 1.

Setting [4] is: five days on, two days off for two weeks, 0.1% DDC diet.

Consider `Cc1cc(-c2ccc(CC(=O)Nc3ccc(-c4cccnc4)cc3)cc2)ccn1` [Wnt-C59], for which, at Porcupine (PORCN) [1] (DCC diet and Wnt-C59 injection), the “p-mTOR protein expression (IHC)” value is recorded as “no expression”. Besides, the “GS protein expression (IHC)” value on Porcupine (PORCN) [1] (DDC diet and Wnt-C59 injection) is “no expression”. At Porcupine (PORCN) [2], the “ALA-D mRNA levels” value is on record as “significantly reduced” and the “ALA-S mRNA levels” value is reported as “significantly reduced”. At Porcupine (PORCN) [3] (DDC diet), the “glutamine synthetase (GS), β-catenin activity” value is “decrease” and the “porphyrin accumulation (H&E)” value is given as “decreased”. In addition, at Porcupine (PORCN) [3] (setting [4]), the “serum ALP” value is listed as “significantly reduced”, the “serum ALT” value is given as “significantly reduced”, the “serum AST” value was “significantly reduced” and the serum total bilirubin result was “significantly reduced”.
